Values quoted from earlier work in patent US20070134339A1, “ZONISAMIDE AND NSAID NANOPARTICULATE FORMULATIONS” (Elan Pharma International, Limited, priority 2005, published 2007).
≈ marks a conversion by molar mass, not a printed value.

Columns and labels:
[1] = not given; remark: listed apart in the source
[2] = not given; remark: listed apart in the source

## NS(=O)(=O)Cc1noc2ccccc12 [Zonisamide, 1,2-benzisoxazole-3-methanesulfonamide]
other
  pKa: 10.2
[1]; 200-400 mg oral dose, normal volunteers
  peak plasma concentrations: 2 to 5 µg/mL
[1]; 200-400 mg oral dose, normal volunteers, without food
  time at which peak plasma concentrations occur: 2 to 6 h
[1]; oral, in the presence of food
  effect of food on bioavailability: no effect
  time to maximum concentration: 4 to 6 h
[2]; 0.1 N HCl
  solubility in 0.1 N HCl: 500 µg/mL (≈ 2.36 mM)
[2]; water
  solubility in water: 800 µg/mL (≈ 3.77 mM)
